Usually Ki stands for a dissociation constant, usually derived from enzyme kinetics or from competition with a known ligand. High values mean lower affinity, low ones higher affinity.

Each structure is given as a SMILES string.

The assay deals with T1, human NK2 receptor (Homo sapiens, UniProt P21452).
T1 construct: expressed in transfected cells; host or cells: Chinese hamster ovary cells (membranes)
T1 sequence (P21452 1-398): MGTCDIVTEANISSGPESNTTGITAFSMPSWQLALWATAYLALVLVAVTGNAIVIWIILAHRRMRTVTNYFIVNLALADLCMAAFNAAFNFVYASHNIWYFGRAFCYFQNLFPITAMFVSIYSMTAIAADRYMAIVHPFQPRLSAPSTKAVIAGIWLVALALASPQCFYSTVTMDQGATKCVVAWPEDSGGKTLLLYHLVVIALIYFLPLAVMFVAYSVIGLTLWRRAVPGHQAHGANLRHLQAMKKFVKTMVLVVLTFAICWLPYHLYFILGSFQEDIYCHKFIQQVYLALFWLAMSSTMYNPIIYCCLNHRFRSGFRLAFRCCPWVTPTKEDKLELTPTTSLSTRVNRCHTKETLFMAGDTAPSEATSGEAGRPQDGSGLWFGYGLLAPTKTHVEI
In words: affinity for the human NK2 receptor, competition with [^3 H] NKA for binding to membranes prepared from Chinese hamster ovary cells. The note with it: membranes from Chinese hamster ovary cells expressing the cloned human NK2 receptor, negative logarithm of the molar affinity. Here is the method:
The affinity of the compounds of formula (I) and their salts for the human NK2 receptor can be tested in vitro by testing their ability to compete with [^3 H] or [^125 I]NKA (neurokinin A) for binding to membranes prepared from Chinese hamster ovary cells expressing the cloned human NK2 receptor. In this method, washed Chinese hamster ovary cell membranes are prepared as described for the previous method where IM9 cells are used instead. The membranes are incubated (90 min, 25° C.) with [^3 H] or [^125 I]NKA and with a range of concentrations of the test compound. Non-specific binding was determined in the presence of 10 μM NKA.
The affinity of a selection of the compounds of the preceding Examples for the human NK2 receptor was tested in vitro by testing their ability to compete with [^3 H] NKA for binding to membranes prepared from Chinese hamster ovary cells expressing the cloned human NK2 receptor using the method set out on page 26.
The "pKi" measurement is the negative logarithm of the molar affinity of the compound for the receptor as determined in radioligand binding assays using standard protocols.
For `O=C1CC[C@](CCN2CC(N3CCC(F)CC3)C2)(c2ccc(Cl)c(Cl)c2)CN1CC1CCC(F)(F)CC1` [Example 1], the Ki was 0.631 nM.

For the compound `O=C1CCC(CCN2CC(N3CCC(F)CC3)C2)(c2ccc(Cl)c(Cl)c2)CN1C1CCCCC1` (stereo not shown) [Example 2], the affinity, expressed as Ki, was 0.0501 nM.

The compound `O=C1CCC(CCN2CC(N3CCC(F)CC3)C2)(c2ccc(Cl)c(Cl)c2)CN1C1(C2CC2)CCCC1` (stereo not shown) [Example 3] had a Ki of 0.1 nM.

As to `O=C1CCC(CCN2CC(N3CCC(F)CC3)C2)(c2ccc(Cl)c(Cl)c2)CN1CCC1CC1` (stereo not shown) [Example 4], the Ki was 2.51 nM.

The record behind these values is US6262075A, “Piperidone tachykinin antagonists” (Pfizer Inc, priority 1996, dated 2001).
